Earlier results as cited in patent US20140342022A1, “Natural Product Against Fatigue” (priority 2013, published 2014).

Test system: EBV-EA activation
Details: latently infected cells

In the case of `O=c1c(O)c(-c2ccc(O)c(O)c2)oc2cc(O)cc(O)c12` [quercetin], the EBV-EA activation is listed as “inhibits”.
